Measured values reported in patent US11833256B2, “Selective RARγ ligand-loaded nanoparticles for manipulation of targeted bone growth” (University Of Maryland, Baltimore, priority 2017, dated 2023).
Each block holds one compound with its values, some of them ahead of it.

Experiments:
[1] = system: heterotopic ossification (HO); test: Heterotopic ossification in FOP model mice, oral palovarotene; assay type: in vivo, mouse; details: oral administration
From the text: As discussed above, control and adjustment of specific long bone growth dysregulation requires achieving a highly localized and sustained therapeutic effect. Today, surgical resection combined with systemically administered anti-inflammatory drugs is the primary treatment modality for acquired HO. Treatment options for FOP are further limited. Because the surgical procedure itself can induce additional HO formation, systemic drug therapy aimed at reducing HO progression and related symptoms is the sole choice. […] However, despite the significant reduction in HO with this treatment regimen, systemic administration of the RARγ agonist fails to completely prevent the disease. Enhancing efficacy by increasing the systemic drug dosage may not be possible without causing strong and even toxic off-target effects. Thus, the inventive methods of treatment here increase the activity at the target site without inducing unwanted systemic effects using biodegradable nanoparticle (NP) formulations impregnated with a potent RARγ agonist capable of targeting specific areas of bone.
Acvr1cR206H/+; R26-rtTA; tetO-cre mice, treated with doxycycline to induce global expression of Acvr1cR206H/+, were subjected to hindlimb muscle injury with cardiotoxin and examined by μCT imaging 14 days after treatment with palovarotene (right) or vehicle (left). […]

[2] = Hydrophobicity of acetaminophen-capped prodrug derivative versus parent; assay type: physicochemical; details: acetaminophen-capped derivative vs parent retinoid
From the text: In order to produce an in situ activatable, reversibly hydrophobized prodrug derivatives of a RARγ agonist, a pro-drug can be delivered in a nanoparticle formulation. […] However, the ionizable carboxylic group promotes the partitioning of the compound from the particle to the surrounding aqueous medium. […] The compound would be activatable upon release can increase the stability of the particle-cargo association and help achieve a more lasting and highly localized therapeutic effect. Such constructs are in essence mutual prodrugs or co-drugs, as they regenerate in one step the retinoid compound and acetaminophen, a biologically active “helper” agent, which can play an important supporting role in therapy.

[3] = target: T1, RARγ (Homo sapiens, UniProt P13631); test: Potency (ED50/EC50) of RARγ agonists
T1 sequence (P13631 1-454): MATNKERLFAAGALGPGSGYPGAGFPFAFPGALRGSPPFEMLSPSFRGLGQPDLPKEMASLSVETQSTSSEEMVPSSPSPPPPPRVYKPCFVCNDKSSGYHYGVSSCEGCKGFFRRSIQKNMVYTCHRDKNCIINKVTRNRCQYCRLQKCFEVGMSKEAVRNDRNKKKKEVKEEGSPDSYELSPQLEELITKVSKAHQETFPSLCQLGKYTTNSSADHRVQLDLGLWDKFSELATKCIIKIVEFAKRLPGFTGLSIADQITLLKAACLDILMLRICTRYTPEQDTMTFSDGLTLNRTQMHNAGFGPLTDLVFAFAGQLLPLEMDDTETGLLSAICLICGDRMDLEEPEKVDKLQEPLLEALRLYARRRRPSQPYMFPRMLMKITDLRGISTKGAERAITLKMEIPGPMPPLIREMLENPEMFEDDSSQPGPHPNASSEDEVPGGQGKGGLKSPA

[4] = system: heterotopic ossification (HO) in FOP patients; details: systemic palovarotene; top-line results of ongoing Phase II trial; cited from earlier work
[5] = Nanoparticle characterisation (size, drug loading); details: in PLA-based NP
Experimental: The drug loading of NP was determined spectrophotometrically against suitable calibration curves following two-step drug extraction in sec-butanol. Particle size measurements were performed by dynamic light scattering using a 90 Plus Particle Size Analyzer. An external sink method was applied for measuring drug release kinetics under sink conditions as follows: NP were diluted in PBS/2% bovine serum albumin and incubated with a water-immiscible acceptor medium (1-octanol and n-heptane, 1:1 v/v), and the released drug assayed spectrophotometrically in the acceptor medium samples at predetermined time-points.

[6] = system: Chick limb bud cells; test: Limb bud cell high density culture, cartilage matrix by Alcian blue; assay type: cell-based; details: RA 1 μM or AGN194310 100 nM for 6 days
Experimental: The limb bud cells were inoculated at a high density and treated with retinoids. Cartilage matrix accumulation was visualized by Alcian blue staining. […] Similar testing was described in Hoffman et al., J. Cell. Biol. 174:101-113, 2006. Chick limb bud cells were isolated from […], seeded at the density of 4×10^5 cells in 10 μL and maintained in 1% FBS containing high glucose DMEM for 3 days. Cultures then were treated with 0.1% EtOH (vehicle), retinoic acid (RA) 1 μM or AGN194310 100 nM for 6 days, fixed, and stained with Alcian Blue, pH 1.0.

more hydrophobic derivative if modified with acetaminophen [2]: 15 fold
potency (EC50) compared with NRX204647 [3]: inferior to that of NRX204647
Structure (SMILES): CC1(C)CCC(C)(C)c2cc(Cn3cccn3)c(/C=C/c3ccc(C(=O)O)cc3)cc21 [palovarotene]
HO in FOP model mice [1]: effectively reduces HO
reduction of HO in patients [4]: up to 70%

average particle size [5]: 565 nm
drug loading [5]: 1 mg/mL
entrapment yield [5]: 67%
polydispersity index [5]: < 0.1
Structure (SMILES): CC(=O)Nc1ccc(OC(=O)c2ccc3cc(C4(c5ccc6c(c5)C(C)(C)CCC6(C)C)SCCS4)ccc3c2)cc1 [MM 11253 prodrug]

Structure (SMILES): CCc1ccc(C2=CC(C)(C)Sc3ccc(C#Cc4ccc(C(=O)O)cc4)cc32)cc1 [AGN194310]
cartilage matrix production / cartilage forming region (Alcian blue) [6]: enhanced
